Where a name gives a salt, the structure may show the parent alone.
Assays:
[1] = Storage stability of Example 1 tablets, contamination profile (HPLC peak area); settings: for result with further compounds having a stabilizing action (in words): used instead of triethyl citrate and simethicone, analogously to the preceding examples
[2] = Storage stability of tablets of Examples 2 to 5, amended HPLC method; type: physicochemical; settings: tablets of Examples 2 to 5, 50° C., 2 weeks
Excerpt: Example 1 was repeated, but with the compounds and concentrations stated in Table 2. Triethyl citrate was applied to a mixture of the active compound, lactose and maize starch, the mixture was granulated with an aqueous solution of hydroxypropylcellulose, the granules were worked up with the additives listed in Table 2 to give the finished end mixture and this mixture was pressed to tablets with a rotary tablet press (Fette P1). Tablets with two different pressing pressures, or two different hardnesses (50 N and 80 N) were prepared and were stored in open brown glass containers at 50° C. for at least two weeks. At the same time, the end mixture which had not been subjected to pressure was stored at 4° C. in closed brown glass containers for the same period of time as a reference sample for comparison.
The tablets from Examples […], 3, 4 and 5 were investigated with an amended HPLC method, which led to other retention times. In this, the peaks correspond to the following compounds:
Peak at 1.7-1.8 min=desethyl-candesartan cilexetil Peak at 3.8-3.9 min=candesartan cilexetil Peak at 9.1-9.2 min=N-ethyl-candesartan cilexetil

Row | Structure (SMILES) | result with further compounds having a stabilizing action (in words) [1] | stabilizing action (in words) [2] | stabilizing action for candesartan cilexetil tablets during storage (in words) ([1]; Example 1 tablets, 50° C., two weeks)
1 | CCCCOC(=O)CCCCCCCCC(=O)OCCCC [dibutyl sebacate] | Analogous results | – | –
2 | CCOC(=O)c1ccccc1C(=O)OCC [diethyl phthalate] | Analogous results | – | –
3 | COC(=O)c1ccccc1C(=O)OC [dimethyl phthalate] | Analogous results | – | –
4 | CCCCOC(=O)CC(O)(CC(=O)OCCCC)C(=O)OCCCC [tributyl citrate] | Analogous results | – | –
5 | CCOC(=O)CC(O)(CC(=O)OCC)C(=O)OCC [triethyl citrate] | – | stabilizing action | stabilizing action
6 | COC(=O)CC(O)(CC(=O)OC)C(=O)OC [trimethyl citrate] | Analogous results | – | –

From patent publication US20090208583A1, “TABLETS COMPRISING CANDESARTAN CILEXETIL” (Siegfried Generics International AG, priority 2006, published 2009)
